Read-outs that look alike come from different tables or passages of the source.
Key:
[1] = test system: cryptic exon within intron 49 of the Huntingtin (HTT) transcripts, GM04724 (CAG 70/20) Huntington's disease patient lymphoblasts; assay: Quantitative splicing assay (HTT); type: cell-based, human; conditions: average
Protocol: GM04724 (CAG 70/20) Huntington's disease patient lymphoblasts (Coriell) are plated in 96-well v-bottom plates at 50,000 cells/well. Immediately after plating, cells are dosed with compound for 24 h at concentrations ranging from 2.5 uM to 0.15 nM (0.1% DMSO). Treated cells are lysed and cDNA synthesized using the Fast Advanced Cells-to-Ct kit (Thermofisher A35378) according to the manufacturer's instructions. 2 uL of each cDNA are used in qPCR reactions to confirm the compound-induced inclusion of a cryptic exon within intron 49 of the Huntingtin (HTT) transcripts. The qPCR reactions are prepared in 384-well plates in 10 uL volume, using TaqMan™ Fast Advanced Master Mix [ThermoFisher; 4444965] with primers and probes shown in the table below. Reactions are run in a Quant Studio 6 qPCR instrument with default settings.

[2] = test system: SMN FL and SMN Δ7 mRNA, spinal muscular atrophy (SMA) patient fibroblasts (GM03813); assay: Quantitative splicing assay (SMN); type: cell-based, human; conditions: 24 h, average; for IC50: read-out: SMN2 Potency - Splicing: Splicing D7 IC50 (average); for EC50: read-out: SMN2 Potency - Splicing: Splicing FL EC50 (average)
Protocol: Spinal muscular atrophy (SMA) patient fibroblasts (GM03813, Coriell) are plated in 96-well plates at 50,000 cells/well. […] Treated cells are lysed and cDNA synthesized using the Fast Advanced Cells-to-Ct kit (Thermofisher A35378) according to the manufacturer's instructions. 2 μL of each cDNA are used in qPCR reactions. […] Reactions are run in a Quant Studio 6 qPCR instrument with default settings.

mHTT protein = mHTT protein assay, 2B7-MW1 Mesoscale Discovery (MSD); type: cell-based, human; conditions: GM04724 lymphoblast cells, 48 hours, 2B7-MW1 MSD; average; read-out: HTT Potency - Protein & Cytotoxicity: EC50 mHTT (average)
Protocol: Compounds are tested on GM04724 (CAG 70/20) Huntington's disease patient lymphoblast cells at doses ranging from 10 μM to 0.6 nM. 4,500 cells/well are seeded in 384 well plates. One plate replica is carried out for parallel viability testing by CellTiter Glo (CTG). Compounds are incubated for 48 hours. mHTT protein levels are assessed by the 2B7-MW1 assay via Mesoscale Discovery (MSD) as previously reported (Macdonald et al., 2014). The antibody pair is comprised of previously characterized monoclonals (2B7 and MW1) interrogating two regions for HTT conformation and biological properties: the N17 domain and the polyQ domain (Baldo et al., 2012; Ko et., 2001). 2B7-MW1 is dependent on subject/animal specific levels of HTT at the time of treatment. 2B7-MW1 is dependent on polyQ expansion (e.g., the higher the expansion the higher the signal) and on mHTT size (e.g., a similar polyQ will give higher signal with smaller HTT size). The viability readout is carried out by CTG according to the manufacturer's instructions. The results are show in Table A-10.

[3] = test system: MDR1-MDCK cell monolayers; assay: MDCK-MDR1 permeability assay, blood-brain-barrier (BBB) penetration potential; type: in vitro ADME; conditions: for General MDCK-MDR1: Efflux: efflux ratio
Protocol: (§1) Each determination is performed in duplicate. […] Analytical conditions are outlined below.
(§2) Papp=(dCr/dt)×Vr/(A×CA) (1)

SMN protein = SMN protein assay, Mesoscale Discovery (MSD); type: cell-based, human; conditions: SMA patient fibroblasts (GM03813), 48 hours, average, read-out: SMN2 Potency - Protein: Protein FL EC50 (average)
Protocol: Compounds are tested on spinal muscular atrophy (SMA) patient fibroblasts (GM03813, Coriell) at doses ranging from 2.5 μM to 0.6 nM. 7000 cells/well are seeded in 96-well plates. Compounds are incubated for 48 hours and the cells were lysed with 100 μL of lysis buffer. 20 μL of lysate is used for SMN protein measurement by Mesoscale Discovery (MSD) assay developed by PharmOptima (Michigan). A standard curve prepared with SMN protein ranging from 1 μg/ml to 19.5 pg/ml is used in each MSD plate to calculate the absolute SMN protein amount in each sample.

MDR1 = assay: MDCK-MDR1 permeability assay, blood-brain-barrier (BBB) penetration potential; type: in vitro ADME; conditions: dog, MDCK-MDR1, pH 7.4
Protocol: as §1, §2

[4] = read-out: HTT Potency - Splicing: E49-50 EC50 (average)
[5] = read-out: HTT Potency - Splicing: E49b EC50 (average)
[6] = dog, MDCK-MDR1, 120 min, 5 μM, pH 7.4

Compound | EC50 [1, 4] [nM] | EC50 [1, 5] [nM] | IC50 [2] [nM] | EC50 [2] [nM] | EC50 (mHTT protein) [nM] | General MDCK-MDR1: % Recov A-B ([3]; A-B direction) [%] | General MDCK-MDR1: % Recov B-A ([3]; B-A direction) [%] | General MDCK-MDR1: Efflux [3] | EC50 (SMN protein) [nM] | General MDCK-MDR1: % Recov A-B [3, 6] [%] | General MDCK-MDR1: % Recov B-A [3, 6] [%] | Papp A→B at 120 min, 5 μM (MDR1) [×10⁻⁶ cm/s] | Papp B→A at 120 min, 5 μM (MDR1) [×10⁻⁶ cm/s] | efflux ratio at 120 min, 5 μM (MDR1)
C[C@]12CC[C@H](C[C@@H](Oc3ccc(-c4ccc(-n5ccnc5)cc4O)nn3)C1)N2 (single isomer, unassigned; ent1) [303-Ent1] | 16 to 50 | 16 to 50 | 16 to 50 | 101 to 500 | 0.01 to 15 | 90 | 90 | 40 | 0.01 to 15 | – | – | – | – | –
CN(c1ccc(-c2ccc(-n3ccnc3)cc2O)nn1)[C@@H]1C[C@H]2CC[C@@](C)(C1)N2 (single isomer, unassigned; ent1) [304-Ent1] | 0.01 to 15 | 0.01 to 15 | – | – | 0.01 to 15 | 94 | 90 | 137 | 0.01 to 15 | – | – | – | – | –
C[C@]12CC[C@H](C[C@@H](Oc3ccc(-c4ccc(-c5cn[nH]c5)cc4O)nn3)C1)N2 (single isomer, unassigned; ent1) [309-Ent1] | 0.01 to 15 | 0.01 to 15 | 0.01 to 15 | – | 0.01 to 15 | 93 | 93 | 68 | 0.01 to 15 | – | – | – | – | –
COc1cc(-c2ccc(-c3ccc(N(C)[C@@H]4C[C@H]5CC[C@@](C)(C4)N5)nn3)c(O)c2)cnn1 (single isomer, unassigned; ent1) [310-Ent1] | – | – | – | – | 0.01 to 15 | 94 | 89 | 130 | 501 to 10000 | – | – | – | – | –
COc1cc(-c2ccc(-c3ccc(N(C)[C@@H]4C[C@H]5CCC[C@@](C)(C4)N5)nn3)c(O)c2)cnn1 (single isomer, unassigned; ent1) [311-Ent1] | – | – | – | – | 0.01 to 15 | 93 | 96 | 180 | 16 to 50 | – | – | – | – | –
COCC12CCC(CC(N(C)c3ccc(-c4cc(F)c(-n5ccnc5)cc4O)nn3)C1)N2 (single isomer, unassigned; ent1) [315-Ent1] | 0.01 to 15 | 0.01 to 15 | 0.01 to 15 | 0.01 to 15 | 0.01 to 15 | 109 | 108 | 103 | 0.01 to 15 | – | – | – | – | –
COCC12CCCC(CC(Oc3ccc(-c4ccc(-c5cnn(C)c5)cc4O)nn3)C1)N2 (single isomer, unassigned; ent1) [316-Ent1] | 16 to 50 | 16 to 50 | 16 to 50 | 51 to 100 | 0.01 to 15 | 84 | 96 | 43 | 0.01 to 15 | – | – | – | – | –
CN(c1ccc(-c2ccc(-c3cnn(C)c3)cc2O)nn1)C1CC2CCC(C)(N2)C1F (single isomer, unassigned; ent1) [317-Ent1] | 0.01 to 15 | 0.01 to 15 | 0.01 to 15 | 0.01 to 15 | 0.01 to 15 | 73 | 98 | 17 | 0.01 to 15 | – | – | – | – | –
CC12CCC(CC(Oc3ccc(-c4ccc(-n5ccnc5)cc4O)nn3)C1)N2 (single isomer, unassigned; ent2) [303-Ent2] | 0.01 to 15 | 0.01 to 15 | 16 to 50 | 16 to 50 | 0.01 to 15 | 86 | 88 | 62 | 0.01 to 15 | – | – | – | – | –
CN(c1ccc(-c2ccc(-n3ccnc3)cc2O)nn1)C1CC2CCC(C)(C1)N2 (single isomer, unassigned; ent2) [304-Ent2] | 0.01 to 15 | 0.01 to 15 | – | – | 0.01 to 15 | 87 | 83 | 109 | 0.01 to 15 | – | – | – | – | –
CC12CCC(CC(Oc3ccc(-c4ccc(-c5cn[nH]c5)cc4O)nn3)C1)N2 (single isomer, unassigned; ent2) [309-Ent2] | 0.01 to 15 | 0.01 to 15 | – | – | 0.01 to 15 | 91 | 86 | 50 | – | – | – | – | – | –
COc1cc(-c2ccc(-c3ccc(N(C)C4CC5CCC(C)(C4)N5)nn3)c(O)c2)cnn1 (single isomer, unassigned; ent2) [310-Ent2] | – | – | – | – | 0.01 to 15 | 89 | 80 | 133 | 16 to 50 | – | – | – | – | –
COc1cc(-c2ccc(-c3ccc(N(C)C4CC5CCCC(C)(C4)N5)nn3)c(O)c2)cnn1 (single isomer, unassigned; ent2) [311-Ent2] | – | – | – | – | 0.01 to 15 | 84 | 83 | 137 | 16 to 50 | – | – | – | – | –
COCC12CCC(CC(N(C)c3ccc(-c4cc(F)c(-n5ccnc5)cc4O)nn3)C1)N2 (single isomer, unassigned; ent2) [315-Ent2] | 0.01 to 15 | 0.01 to 15 | – | – | 0.01 to 15 | 104 | 107 | 117 | – | – | – | – | – | –
COCC12CCCC(CC(Oc3ccc(-c4ccc(-c5cnn(C)c5)cc4O)nn3)C1)N2 (single isomer, unassigned; ent2) [316-Ent2] | 16 to 50 | 16 to 50 | 16 to 50 | 51 to 100 | 16 to 50 | 77 | 106 | 40 | 0.01 to 15 | – | – | – | – | –
CN(c1ccc(-c2ccc(-c3cnn(C)c3)cc2O)nn1)C1CC2(C)CCC(N2)C1F (single isomer, unassigned; ent2) [318-Ent2] | – | – | – | – | 0.01 to 15 | – | – | – | 0.01 to 15 | – | – | – | – | –
CN1C2CC[C@@H]1C[C@@H](Oc1ccc(-c3ccc(-n4ccnc4)cc3O)nn1)C2 [compound 301] | – | – | – | – | – | – | – | – | 501 to 10000 | 83 | 91 | 2.34 | 48.2 | 21
CN1[C@@H]2CCC[C@H]1C[C@H](Oc1ccc(-c3ccc(-n4ccnc4)cc3O)nn1)C2 [compound 302] | – | – | – | – | 501 to 10000 | – | – | – | 51 to 100 | 90 | 110 | 3.09 | 55.8 | 18
CN1[C@@H]2CCC[C@H]1C[C@H](Oc1ccc(-c3ccc(-c4cn[nH]c4)cc3O)nn1)C2 [compound 305] | – | – | – | – | 51 to 100 | – | – | – | 501 to 10000 | – | – | – | – | –
CN1[C@@H]2CC[C@H]1C[C@H](Oc1ccc(-c3ccc(-c4cn[nH]c4)cc3O)nn1)C2 [compound 306] | – | – | – | – | 101 to 500 | – | – | – | 501 to 10000 | 95 | 102 | 1.19 | 55.4 | 47
